In ChEMBL document CHEMBL5465560, “Selectivity Literature for EUbOPEN Chemogenomic Library” (2024) one finds % of control and % of inhibition data, which are given here for 5 compounds.

For test [1], the target named is T1, Protein kinase C iota type (Homo sapiens) (UniProt P41743).
T1 sequence (whole entry): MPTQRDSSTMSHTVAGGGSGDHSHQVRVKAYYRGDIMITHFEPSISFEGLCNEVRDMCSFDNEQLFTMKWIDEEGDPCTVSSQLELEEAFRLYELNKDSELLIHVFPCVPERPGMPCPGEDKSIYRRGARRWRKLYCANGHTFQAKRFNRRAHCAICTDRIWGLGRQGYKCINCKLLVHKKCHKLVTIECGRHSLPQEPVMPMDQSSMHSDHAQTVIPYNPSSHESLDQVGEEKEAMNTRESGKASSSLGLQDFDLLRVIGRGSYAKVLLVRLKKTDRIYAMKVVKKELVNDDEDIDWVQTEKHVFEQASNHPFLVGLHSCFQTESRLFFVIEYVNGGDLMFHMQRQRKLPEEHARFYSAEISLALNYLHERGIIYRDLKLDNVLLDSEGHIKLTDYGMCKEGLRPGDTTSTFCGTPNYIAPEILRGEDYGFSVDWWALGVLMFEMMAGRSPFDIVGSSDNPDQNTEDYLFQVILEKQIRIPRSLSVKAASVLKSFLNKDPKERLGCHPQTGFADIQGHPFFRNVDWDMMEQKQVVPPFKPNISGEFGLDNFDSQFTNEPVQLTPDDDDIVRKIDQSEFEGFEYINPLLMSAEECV
Put plainly: Selectivity interaction (Ambit KINOMEscan and KiNATiv profiling in Jurkat cells) EUB0000090b PRKCI. It is filed as cell-based. To be noted: at 1 µM.

The target in test [2] is Delta-type opioid receptor (Homo sapiens, UniProt P41143). The experiment in a line: Selectivity interaction (GPCR panel (PDSP screen)) EUB0001079a OPRD1. The settings on record: at 10 µM.
Delta-type opioid receptor, sequence (P41143 whole entry): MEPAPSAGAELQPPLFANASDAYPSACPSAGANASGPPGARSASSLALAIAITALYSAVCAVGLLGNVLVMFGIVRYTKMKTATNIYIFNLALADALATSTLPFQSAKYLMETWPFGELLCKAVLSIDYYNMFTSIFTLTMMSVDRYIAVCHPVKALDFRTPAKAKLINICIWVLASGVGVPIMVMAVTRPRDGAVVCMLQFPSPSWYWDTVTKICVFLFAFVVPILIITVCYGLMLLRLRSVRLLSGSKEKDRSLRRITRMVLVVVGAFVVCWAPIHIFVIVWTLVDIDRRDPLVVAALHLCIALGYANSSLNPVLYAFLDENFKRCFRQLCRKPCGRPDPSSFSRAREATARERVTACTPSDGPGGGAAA
The target in test [3] is T2, Dual specificity tyrosine-phosphorylation-regulated kinase 2 (Homo sapiens) (UniProt Q92630).
T2 sequence (whole entry): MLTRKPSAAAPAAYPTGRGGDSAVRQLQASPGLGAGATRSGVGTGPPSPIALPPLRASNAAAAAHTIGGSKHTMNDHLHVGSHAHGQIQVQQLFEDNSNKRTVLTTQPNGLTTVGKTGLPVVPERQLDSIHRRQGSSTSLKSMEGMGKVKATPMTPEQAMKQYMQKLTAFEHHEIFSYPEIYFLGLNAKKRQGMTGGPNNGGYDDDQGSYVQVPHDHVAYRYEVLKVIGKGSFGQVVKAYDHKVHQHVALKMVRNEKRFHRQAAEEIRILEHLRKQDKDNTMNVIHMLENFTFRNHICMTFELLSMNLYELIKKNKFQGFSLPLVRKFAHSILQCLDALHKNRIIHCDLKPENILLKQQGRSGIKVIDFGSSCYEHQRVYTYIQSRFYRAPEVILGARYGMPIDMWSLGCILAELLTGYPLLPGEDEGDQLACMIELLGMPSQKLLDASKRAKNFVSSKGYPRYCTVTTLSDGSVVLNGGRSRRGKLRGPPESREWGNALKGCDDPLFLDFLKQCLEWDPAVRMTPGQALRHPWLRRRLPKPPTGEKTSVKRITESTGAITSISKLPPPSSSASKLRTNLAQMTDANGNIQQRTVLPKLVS
Put plainly: Selectivity interaction (Kinase screening (Nanosyn)) EUB0000604a DYRK2.

Test [4] addresses T3, Inhibitor of nuclear factor kappa-B kinase subunit beta (Homo sapiens) (UniProt O14920).
T3 sequence (whole entry): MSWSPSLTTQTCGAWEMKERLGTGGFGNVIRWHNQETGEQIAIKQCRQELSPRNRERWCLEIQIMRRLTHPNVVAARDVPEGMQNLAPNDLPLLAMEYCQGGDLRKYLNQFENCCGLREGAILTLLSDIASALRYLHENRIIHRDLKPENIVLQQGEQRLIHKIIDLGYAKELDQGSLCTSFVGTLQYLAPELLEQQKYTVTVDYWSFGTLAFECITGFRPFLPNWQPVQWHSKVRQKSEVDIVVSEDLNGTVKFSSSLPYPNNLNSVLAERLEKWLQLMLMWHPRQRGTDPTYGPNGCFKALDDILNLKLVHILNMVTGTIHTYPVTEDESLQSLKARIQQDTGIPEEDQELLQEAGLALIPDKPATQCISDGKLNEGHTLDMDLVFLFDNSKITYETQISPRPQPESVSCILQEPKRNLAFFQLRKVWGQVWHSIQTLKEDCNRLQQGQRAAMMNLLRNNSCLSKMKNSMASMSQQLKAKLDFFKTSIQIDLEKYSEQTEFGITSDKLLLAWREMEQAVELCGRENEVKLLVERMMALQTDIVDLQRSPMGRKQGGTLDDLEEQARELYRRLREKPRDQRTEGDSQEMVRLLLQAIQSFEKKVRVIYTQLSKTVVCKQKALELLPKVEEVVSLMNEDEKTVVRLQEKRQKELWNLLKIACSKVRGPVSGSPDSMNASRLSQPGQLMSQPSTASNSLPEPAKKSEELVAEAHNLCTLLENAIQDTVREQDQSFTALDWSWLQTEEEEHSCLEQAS
Put plainly: Selectivity interaction (KinomeScan (DiscoverX)) EUB0000045b IKBKB.

In test [5] the target is Maternal embryonic leucine zipper kinase (Homo sapiens) (UniProt Q14680). The experiment in a line: Selectivity interaction (KinomeScan (DiscoverX)) EUB0000618a MELK. To be noted: at 10 µM.
Maternal embryonic leucine zipper kinase (Homo sapiens), sequence (Q14680 whole entry, looked up): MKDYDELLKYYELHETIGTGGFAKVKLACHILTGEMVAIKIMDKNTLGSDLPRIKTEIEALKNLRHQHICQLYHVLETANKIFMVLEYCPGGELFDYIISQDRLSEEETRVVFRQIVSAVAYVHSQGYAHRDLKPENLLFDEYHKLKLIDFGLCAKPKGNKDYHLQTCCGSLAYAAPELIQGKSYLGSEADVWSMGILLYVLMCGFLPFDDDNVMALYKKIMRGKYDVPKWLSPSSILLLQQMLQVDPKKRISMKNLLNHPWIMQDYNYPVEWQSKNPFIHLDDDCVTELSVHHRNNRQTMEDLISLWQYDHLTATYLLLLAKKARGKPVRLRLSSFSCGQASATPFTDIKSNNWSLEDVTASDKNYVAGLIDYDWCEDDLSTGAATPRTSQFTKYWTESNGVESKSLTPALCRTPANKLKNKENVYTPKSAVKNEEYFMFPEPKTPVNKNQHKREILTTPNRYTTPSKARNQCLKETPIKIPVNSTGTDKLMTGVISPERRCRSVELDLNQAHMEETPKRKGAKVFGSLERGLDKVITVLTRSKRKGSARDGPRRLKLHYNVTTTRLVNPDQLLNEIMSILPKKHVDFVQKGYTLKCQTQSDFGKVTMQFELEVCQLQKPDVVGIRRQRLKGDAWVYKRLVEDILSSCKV

For `CN(C)C/C=C/C(=O)Nc1ccc(C(=O)N2CCCC(Nc3ncc(Cl)c(-c4c[nH]c5ccccc45)n3)C2)cc1` (stereo unspecified), the % of control in test [1] amounted to 98%.
On to `Nc1cnc(N2CCc3cc(S(=O)(=O)Nc4c(F)cc(Cl)cc4F)cc(N4CCCC4=O)c32)nc1` [TP-020n], for which the % of inhibition in test [2] is -1.24%.
Regarding `Cc1cnc(Nc2ccc(F)cc2Cl)nc1-c1c[nH]c(C(=O)N[C@H](CO)c2cccc(Cl)c2)c1`, the % of inhibition in test [3] was determined as 3%.
For the compound `C=CC(=O)Nc1cc(-n2c(=O)ccc3cnc4ccc(-c5ccc(NS(C)(=O)=O)cc5)cc4c32)ccc1C`, the % of control in test [4] (at 1 µM) came out at 93%; in test [4] (at 10 µM), 100%.
The compound `O[C@H]1CC[C@H](Nc2ncc3nc(Nc4c(F)cc(F)cc4F)n([C@H]4CCOC4)c3n2)CC1` displayed a % of control in test [5] of 92%.
